Results taken from patent publication US20150065470A1, “Steroid Sulfatase Inhibitor Regimen for the Treatment of Endometriosis” (priority 2012, published 2015).
Blank lines part the entries; values can stand above or below the molecule they belong to.

Key:
STS [1] = target: T1, STS (Homo sapiens, UniProt P08842); details: cited from earlier work
T1 sequence (P08842 22-583): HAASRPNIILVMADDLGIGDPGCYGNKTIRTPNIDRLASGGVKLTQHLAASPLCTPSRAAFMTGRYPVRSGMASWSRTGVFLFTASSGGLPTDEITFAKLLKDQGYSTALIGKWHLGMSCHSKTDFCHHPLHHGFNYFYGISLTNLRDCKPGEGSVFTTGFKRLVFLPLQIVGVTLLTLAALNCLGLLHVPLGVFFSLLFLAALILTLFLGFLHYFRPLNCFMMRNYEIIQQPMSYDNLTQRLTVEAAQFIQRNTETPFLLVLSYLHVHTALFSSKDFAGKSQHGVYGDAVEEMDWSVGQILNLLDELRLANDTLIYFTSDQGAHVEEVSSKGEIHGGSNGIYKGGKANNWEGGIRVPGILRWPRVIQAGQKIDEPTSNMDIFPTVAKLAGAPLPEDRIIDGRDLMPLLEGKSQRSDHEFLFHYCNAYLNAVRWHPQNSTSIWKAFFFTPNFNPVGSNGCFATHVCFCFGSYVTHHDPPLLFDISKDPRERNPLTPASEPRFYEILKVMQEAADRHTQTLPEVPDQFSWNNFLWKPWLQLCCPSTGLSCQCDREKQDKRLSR

STS activity in PBMCs = target: T2, STS activity in PBMCs (Homo sapiens, UniProt P08842); test: STS activity in PBMCs, Example 2 (LC-MS/MS); type: in vivo; details: E2MATE 4 mg weekly and/or NETA 10 mg daily for 4 weeks
T2 construct: Pharmacodynamic properties were investigated by assessment of the STS activity in PBMCs; endogenous in cells; host or cells: peripheral blood mononuclear cells (PBMCs) of dosed women
T2 sequence (P08842 22-583): T1 sequence (P08842 22-583)
Protocol: (§1) STS activity was determined by spiking specimens with labelled E1-S and by measuring its conversion to E1 per gram protein under standardized incubation conditions using LC-MS/MS. Protein concentration was evaluated with a validated colorimetric assay (Bradford method).

[2] = Safety, tolerability and post-treatment menstruation cycles, Example 2; details: follow-up, ultrasound
Text: Menstruation cycle length was not influenced by the treatment. […] Sizes of right and left ovary differed slightly for each subject, but no clinically relevant changes were identified by the gynaecologists.

[3] = target: T3, Steroid Sulfatase in endometrium (Homo sapiens, UniProt P08842); test: STS activity in endometrium, Example 2 (LC-MS/MS); type: in vivo; details: E2MATE 4 mg weekly and/or NETA 10 mg daily for 4 weeks
T3 construct: from tissue; host or cells: endometrium (biopsies) of dosed women
T3 sequence (P08842 22-583): T1 sequence (P08842 22-583)
Protocol: as §1

E2 and P4; T and D4A = test: Hormone profiles (E2, P4, T, D4A), Example 2; type: in vivo, human
Protocol: Hormone profiles were determined as described in Example 1.

STS [4] = target: T1, STS; details: cited from earlier work; remark: listed apart in the source

SMILES: NS(=O)(=O)Oc1ccc2c3c(c(=O)oc2c1)CCCCC3
- blocking STS activity in both eutopic and ectopic tissues (STS [1]): effective in blocking STS activity

- mean percentage inhibition of STS activity in PBMCs (STS activity in PBMCs; Day 4): 12%
- average inhibition of STS activity in PBMCs (STS activity in PBMCs): 4%
- AVG [%] average inhibition of Steroid Sulfatase in endometrium (average effect over time (AUC)) [3]: 14.9 (27.0) %
- Emax [%] maximal inhibition of Steroid Sulfatase in endometrium [3]: 46.7 (42.8) %
SMILES: C#C[C@]1(OC(C)=O)CC[C@H]2[C@@H]3CCC4=CC(=O)CC[C@@H]4[C@H]3CC[C@@]21C [NETA, norethindrone (norethisterone) acetate, reference compound]
- ovarian size [2]: no apparent effect
- mean concentration-time profiles in E2 and P4 (E2 and P4; T and D4A; first cycle up to Day 29, normal increase on Day 43): suppressed
- mean concentration-time profiles for T and D4A (E2 and P4; T and D4A; multiple dose administration): No relevant differences

SMILES: C[C@]12CCC3c4ccc(OS(N)(=O)=O)cc4CCC3C1CCC2=O (stereo partly drawn) [EMATE, Estrone-3-o-sulfamate]
- STS inhibition (STS [4]): active STS inhibitors
